Values quoted from earlier work in patent publication US9011962B2, “Bovine meat compositions having enhanced quality, nutritive and health values obtained from enrichment diets” (priority 2007, dated 2015).

How the values were obtained:
[1] = in vivo

## C[Se]CC[C@H](N)C(=O)O [Selenomethionine, selenomethionine]
[1]
  Bioavailability (relative): 245

## [Se] [selenium]
FDA
  upper limit from food and supplements likely to pose no risk of adverse health effects: 400 micrograms per day
Rayman review
  safe daily intake for human use: approximately 15 micrograms per kilogram body weight per day
Recognized by FDA
  lowest-observed adverse effect level of selenium intake: 900 micrograms per day
  no-observed adverse effect level: 800 micrograms per day
